Reference: paper PMC2778288 (Journal of medicinal chemistry, 2008)

Tests used:
[1] = test system: primary normal human bladder epithelial cells; assay: 3H-thymidine incorporation; type: cell-based
[2] = test system: primary normal human bladder epithelial cells; conditions: biological antiproliferation assays; cited from earlier work
[3] = test system: normal bladder epithelial as well as cells derived from urothelial carcinomas; conditions: native and synthetic APF; cited from earlier work

| Substance | antiproliferative activity relative to as-APF 1 (in words) [1] | antiproliferative activity (previously determined, in words) [2] | other results |
| --- | --- | --- | --- |
| Galβ1-3GalNAcα-O-SLPAAVVVA [compound 2] |  |  | loss of potency/activity compared to parent as-APF 1 (orders of magnitude) [1]: 2 orders of magnitude |
| Galβ1-3GalNAcα-O-SVPAAVVVA [compound 3] |  |  | loss of potency/activity compared to parent as-APF 1 (orders of magnitude) [1]: 4 orders of magnitude |
| Galβ1-3GalNAcα-O-TLPAAVVVA [compound 4] | inactivation |  |  |
| Galβ1-3GalNAcα-O-TLS(^ΨMe,Mepro)-AAVVVA [compound 9] | completely abolished activity |  |  |
| Galβ1-3GalNAcα-O-TV-Aze-AAVVVA [compound 10] | completely abolished activity |  |  |
| Galβ1-3GalNAcα-O-TV-Hyp-AAVVVA [compound 12] |  |  | loss of potency/activity compared to parent as-APF 1 (orders of magnitude) [1]: 2–3 orders of magnitude |
| Galβ1-3GalNAcα-O-TV-Pip-AAVVVA [compound 15] | complete retention |  |  |
| Galβ1-3GalNAcα-O-TVPAAAAAA [compound 25] | decreased as-APF activity |  |  |
| Galβ1-3GalNAcα-O-TVPAAGGGA [compound 26] | complete inactivation |  |  |
| Galβ1-3GalNAcα-O-TVPAAVVVAK [compound 33] | complete loss of activity |  |  |
| Galβ1-3GalNAcα-O-TVPAAVVVAK(Ac) [compound 35] | some of which was restored |  |  |
| Galβ1-3GalNAcα-O-TVPAAVVVAK(dansyl) [compound 31] | no loss of activity |  |  |
| Galβ1-3GalNAcβ-O-TVPAAVVVA |  | completely inactive |  |
| Galβ1-4GlcNAcα-O-SLPAAVVVA |  | essentially equipotent |  |
| Neu5Acα2-3Galβ1-3GalNAcα-O-TVPAAVVVA [APF] |  | essentially equipotent | concentrations inhibiting proliferation [3]: picomolar to low nanomolar |
| Neu5Acα2-3Galβ1-4GlcNAcα-O-TVPAAVVVA |  | essentially equipotent |  |
| Neu5Acα2-3Galβ1-4GlcNAcαO-SLPAAVVVA |  | essentially equipotent |  |
| TVPAAVVVA [nonglycosylated nonapeptide] |  | completely inactive |  |
